Patent publication US8697692B2, “Pyrrolo [3,2-c] pyridine-4-one 2-indolinone protein kinase inhibitors” (Shanghai Hengrui Pharmaceutical Co., Ltd., priority 2006, dated 2014)

These compounds were tested on A431 cell (assay: Cell Proliferation Inhibition EGFR Assay (SRB method)). Conditions: Homo sapiens, A-431, 72 h, read-out: IC50 (A431).
Type: cell-based, homo sapient
Description: The following in vitro assay may be used to determine the level of activity and effect of different compounds of the present invention on the proliferation inhibition (cell toxic) of […] growth factor receptor (EGFR) high expressing homo […] cancer cell-A431 cell. The cellular assay described here measure the compounds of their anti-angiogenesis and proliferation inhibition activity and effect through EGFR on the cancer cells in vitro. The effect and activity is represented by the IC50 value that kills the cancer cell. […] The homo […] highly express EGFR are chosen and seeded to 96-well cell culture plate at a suitable concentration (exp 5000 cells/ml medium). The cells then are cultured in carbon dioxide (CO2) incubator till when they confluence to about 85%. Then, the cell culture medium is replaced by fresh one with tested compounds added in it at serial concentrations (general 6 to 7 concentrations). Then the cells are put back to the culture and cultured for continuous 72 hours. 72 hours later, the cell exposed to compounds and control cell are assayed for their proliferation using Sulforhodamine B (SRB) method. Compounds IC50 on tested cells are calculated by the data of inhibition rates of serial concentrations of the tested compounds. • a. Dimethyl sulfoxide (Sinophma chemical reagent company, catalog No. T20050806) • b. A431 cells (Purchased from Institute of biochemistry and cell biology) • c. Falcon 100 mm cell culture plates (Baton Dickison Labware, Baton Dickison and company, • Catalog No. 18677) • d. coming 96-well culture cluster (Corning Incorporated, Catalog No. 3599) • e. Fisher Pipette (Fisher scientific, Catalog No. 03-692-164) • f. DMEM/F12 cell medium (Gibco, Catalog No. 12400-024) • g. Fetal bovine serum, origin from Australia (Gibco, Catalog No. 10099-141) • h. […] Sulforhodamine B (Sigma, Catalog No. 3520-42-1) • k. Acetic Acid (Sinophma chemical reagent company, Catalog No. T20060508) • l. Trichloroacetic Acid (Sinophma chemical reagent company, Catalog No. T20060305) • m. Tris base (Amresco, Catalog No. 0826) • n. Class II A/B3 Biological safety cabinet (ThermoForma Catalog No. HB0053 03) • o. Series II water jacketed CO2 incubator (ThermoForma Model: 3111) • p. Centrifuge (Fisher Scientific Marathon 8 k, Catalog No. 0027-02) • q. Novastar Plate reader (BMG Labtech, Catalog No. 700 0081) • r. Orbital Shaker (Qilinbeier, Catalog No. TS-1) Protocol: […] Growing seeded 96-well plates at 37° C., 5% CO2, till 85% confluence. • 4. Prepare compounds stock solution, using DMSO solve candidate compounds to a concentration of 20 mM. […] Use cell culture medium (in this case, DMEM/F12+10% FBS) to dilute the compounds solution prepared above. Each DMSO serial concentration compound solution is diluted by 20 times with culture medium by adding 5 μl DMSO compound solution to 95 μl culture medium, then mix well by vortex. This promise that the DMSO concentration at that the A431 cell will exposed to will not surpass 0.5%. • 6. […] Each well added 180 μl medium, then add 20 μl medium solution of tested compounds prepared at step 5 to each well. For control group cell, add 20 μl culture medium containing 0.5% pure DMSO. […] Each 96-well plate, we can test 3 compounds with a control cell group. • 7. Put the culture plates back to incubator, culture for 72 hours at 37° C., 5% CO2. • 8. 72 hours later, remove cultures from incubator into sterile work area. • 9. Prepare fixative (50% Trichloroacetic Acid-TCA) by adding reagent grade water to the TCA, fix the cells by gently layering […] of cold TCA solution on top of the growth medium. • 10. Incubate plates for 1 hour at 4° C. and then rinse with water several times to remove TCA, serum proteins, etc. Plates are air dried and stored until use. Bland background optical density is measured in wells incubated with growth medium without cells. • 11. Use 10% acetic acid solution to prepare 0.4% Sulforhodamine B solution. Add 50 μl sulforhodamine B solution to each well of 96-well plates. • 12. […]

Q: Cc1c(/C=C2\C(=O)Nc3ccc(F)cc32)[nH]c2c1C(=O)N(CCN1CCOCC1)CC2 [Example 15, 2-(5-Fluoro-2-oxo-1,2-dihydro-indol-3-ylidenemethyl)-3-methyl-5-(2-morpholin-4-yl-ethyl)-1,5,6,7-tetrahydro-pyrrolo[3,2-c]pyridin-4-one] was tested. Which IC50 did it give?
A: 1350 nM

Same assay, conditions: Homo sapiens, A-431; A431 cells, 72 hours exposure, Sulforhodamine B; read-out: IC50 (A431)

Q: How did the IC50 turn out when Cc1c(/C=C2\C(=O)Nc3cccc(-c4c(F)cccc4F)c32)[nH]c2c1C(=O)N(CCN1CCCCC1)CC2 [Example 63, 2-[4-(2,6-Difluoro-phenyl)-2-oxo-1,2-dihydro-indol-3-ylidenemethyl]-3-methyl-5-(2-piperidin-1-yl-ethyl)-1,5,6,7-tetrahydro-pyrrolo[3,2-c]pyridin-4-one] was run?
A: 530 nM

Q: With Cc1c(/C=C2\C(=O)Nc3ccc(NS(C)(=O)=O)cc32)[nH]c2c1C(=O)N(CCN1CCOCC1)CC2 [Example 22, N-{3-[3-Methyl-5-(2-mopholin-4-yl-ethyl)-4-oxo-4,5,6,7-tetrahydro-1H-pyrrolo[3,2-c]pyridine-2-ylmethylene]-2-oxo-2,3-dihydro-1H-indol-5-yl}-methanesulfonamide] as the compound, how does the IC50 read?
A: 2850 nM

Q: With Cc1c(/C=C2\C(=O)Nc3c(Br)cc(F)cc32)[nH]c2c1C(=O)N(CCN1CCCCC1)CC2 [Example 90, 2-(7-Bromo-5-fluoro-2-oxo-1,2-dihydro-indol-3-ylidenemethyl)-3-methyl-5-(2-piperidin-1-yl-ethyl)-1,5,6,7-tetrahydro-pyrrolo[3,2-c]pyridin-4-one] as the compound, how does the IC50 read?
A: 270 nM

Q: Cc1c(/C=C2\C(=O)Nc3ncc(Br)cc32)[nH]c2c1C(=O)N(CCN1CCCCC1)CC2 [Example 93, 2-(5-Bromo-2-oxo-1,2-dihydro-pyrrolo[2,3-b]pyridin-3-ylidenemethyl)-3-methyl-5-(2-piperidin-1-yl-ethyl)-1,5,6,7-tetrahydro-pyrrolo[3,2-c]pyridin-4-one] was tested. Which IC50 did it give?
A: 1660 nM

Q: How did the IC50 turn out when Cc1c(/C=C2\C(=O)Nc3cccc(-c4cccc(Cl)c4F)c32)[nH]c2c1C(=O)N(CCN1CCOCC1)CC2 [Example 48, 2-[4-(3-Chloro-2-fluoro-phenyl)-2-oxo-1,2-dihydro-indol-3-ylidenemethyl]-3-methyl-5-(2-morpholin-4-yl-ethyl)-1,5,6,7-tetrahydro-pyrrolo[3,2-c]pyridin-4-one] was run?
A: 6110 nM

Q: How did the IC50 turn out when Cc1c(/C=C2\C(=O)Nc3cc(NCc4ccc(F)cc4)c(F)cc32)[nH]c2c1C(=O)N(CCN1CCCCC1)CC2 [Example 94, 2-[5-Fluoro-6-(4-fluoro-benzylamino)-2-oxo-1,2-dihydro-indol-3-ylidenemethyl]-3-methyl-5-(2-piperidin-1-yl-ethyl)-1,5,6,7-tetrahydro-pyrrolo[3,2-c]pyridin-4-one] was run?
A: 340 nM

Q: Which IC50 does the source give for O=C(CO)Nc1cc2c(cc1F)/C(=C/c1[nH]c3c(c1-c1ccc(F)cc1)C(=O)NCC3)C(=O)N2 [Example 65, N-{5-Fluoro-3-[3-(4-fluoro-phenyl)-4-oxo-4,5,6,7-tetrahydro-1H-pyrrolo[3,2-c]pyridin-2-ylmethylene]-2-oxo-2,3-dihydro-1H-indol-6-yl}-2-hydroxy-acetamide] here?
A: 3060 nM

Q: With Cc1c(/C=C2\C(=O)Nc3cccc(CCO)c32)[nH]c2c1C(=O)N(CCN1CCCC1)CC2 [Example 75, 2-[4-(2-Hydroxy-ethyl)-2-oxo-1,2-dihydro-indol-3-ylidenemethyl]-3-methyl-5-(2-pyrrolidin-1-yl-ethyl)-1,5,6,7-tetrahydro-pyrrolo[3,2-c]pyridin-4-one] as the compound, how does the IC50 read?
A: 1680 nM

Q: Which IC50 does the source give for Cc1c(/C=C2\C(=O)Nc3cc(NC(=O)CO)c(F)cc32)[nH]c2c1C(=O)N(CCN1CCCCC1)CC2 [Example 61, N-{5-Fluoro-3-[3-methyl-4-oxo-5-(2-piperidin-1-yl-ethyl)-4,5,6,7-tetrahydro-1H-pyrrolo[3,2-c]pyridin-2-ylmethylene]-2-oxo-2,3-dihydro-1H-indol-6-yl}-2-hydroxy-acetamide] here?
A: 1250 nM
